Test results: patent US10047105B2, “Gyrase inhibitors” (Merck Sharp & Dohme Corp., priority 2009, dated 2018)
Converted amounts (≈) assume the structure as drawn.

Assays:
Format in all cases: cell-based
[1] = test system: E. coli 8 ATCC 25922; assay: MIC, E. coli 8 (wt); conditions: E. coli 8 (EC8)
[2] = test system: S. pneumoniae ATCC 51916; assay: MIC, S. pneumoniae; conditions: S. pneumoniae (Spn52); in µg/mL
[3] = test system: S. aureus ATCC 13709; assay: MIC, antibacterial potency, S. aureus; conditions: S. aureus (SA); in µg/mL

Structure (SMILES) | MIC EC8 [1] | MIC Spn52 [2] | MIC, SA [3]
CCc1[nH]c2nc(Sc3cnc4ccc[n+]([O-])c4c3)nc(N3CCC4CNC4C3)c2c1Cl (stereo not drawn) [701,116] | 16 µg/mL (≈ 34.2 µM) | 2 | <=0.5
Cc1[nH]c2nc(Sc3cnc4nccnc4c3)nc(N3CC4C(N)C4C3)c2c1C (stereo not drawn) [701,117] | > 64 µg/mL | 8 | 8
CCc1[nH]c2nc(Sc3cnc4nccnc4c3)nc(N3CC4NC4C3)c2c1Cl (stereo not drawn) [701,118] | 64 µg/mL (≈ 151 µM) | 2 | 4
CCc1[nH]c2nc(Sc3cnc4nccnc4c3)nc(N3C[C@@H](O)[C@@H](N)C3)c2c1Cl [701,119] | > 64 µg/mL | 16 | 32
CCc1[nH]c2nc(Sc3cnc4nccnc4c3)nc(N3CCC(CC)(NC(=O)C(F)(F)F)C3)c2c1Cl (stereo not drawn) [701,120] | > 64 µg/mL | 32 | 4
CCc1[nH]c2nc(Oc3cnc(N)nc3)nc(N3CC4C(N)C4C3)c2c1Cl (stereo not drawn) [701,122] | 32 µg/mL (≈ 82.7 µM) | 2 | 2
CCc1[nH]c2nc(Oc3cnc4cccnc4c3)nc(N3CC4C(N)C4C3)c2c1Cl (stereo not drawn) [701,126] | 4 µg/mL (≈ 9.48 µM) | <=0.5 | <=0.5
CCc1[nH]c2nc(Sc3cnc4cccnc4c3)nc(N3CC4CC(C3)N(C(=O)OC(C)(C)C)C4)c2c1Cl (stereo not drawn) [701,132] | > 64 µg/mL | >64 | >64
CCc1[nH]c2nc(Oc3cnc(C(N)=O)nc3)nc(N3CC4C(N)C4C3)c2c1Cl (stereo not drawn) [701,133] | > 64 µg/mL | 8 | 8
CCc1[nH]c2nc(Sc3cnc4nccnc4c3)nc(N3CC4CNC(C4)C3)c2c1Cl (stereo not drawn) [701,137] | 64 µg/mL (≈ 141 µM) | 4 | 2
CCc1[nH]c2nc(Oc3cccnc3)nc(N3CC4C(N)C4C3)c2c1Cl (stereo not drawn) [701,140] | > 64 µg/mL | 8 | 4
CCc1[nH]c2nc(Sc3cnc4cccnc4c3)nc(N3CC4C(N)C4C3)c2c1C (stereo not drawn) [701,143] | 64 µg/mL (≈ 153 µM) | 2 | <=0.5
CCc1[nH]c2nc(Sc3cnc4nccnc4c3)nc(N3C[C@@H]4[C@H](C3)[C@@]4(N)CO)c2c1Cl [701,144] | 32 µg/mL (≈ 68.2 µM) | 2 | <=0.5
CCc1[nH]c2nc(Sc3cnc4nccnc4c3)nc(N(CCN)CC(C)c3ccccc3)c2c1Cl (stereo not drawn) [701,147] | > 64 µg/mL | 64 | 32
CCc1[nH]c2nc(Sc3cnc4nccnc4c3)nc(N(CCN)CC(C)C)c2c1Cl [701,148] | > 64 µg/mL | 64 | 64
CCc1[nH]c2nc(Oc3cnc(C)nc3)nc(N3CC4C(N)C4C3)c2c1Cl (stereo not drawn) [701,151] | 8 µg/mL (≈ 20.7 µM) | 2 | <=0.5
CCc1[nH]c2nc(Sc3cccnc3)nc(Cl)c2c1C(F)F [701,153] | > 64 µg/mL | >64 | 64
CCc1[nH]c2nc(Sc3cnc4cccnc4c3)nc(N3CC[C@@H](N)C3)c2c1C [701,161] | 64 µg/mL (≈ 158 µM) | 16 | 4
CCc1[nH]c2nc(Sc3cccnc3)nc(N3C[C@@H]4[C@@H](N)[C@@H]4C3)c2c1C(F)F [701,162] | > 32 µg/mL | 32 | 16
CCc1[nH]c2nc(Oc3cncc(C(=O)OC)c3)nc(N3CC4C(N)C4C3)c2c1Cl (stereo not drawn) [701,163] | > 64 µg/mL | >64 | >64
CCc1[nH]c2nc(Sc3cncc(S(=O)(=O)N(C)C)c3)nc(N3CC[C@@H](N)C3)c2c1Cl [701,180] | > 64 µg/mL | 32 | 16
CCc1[nH]c2nc(Sc3cncc(S(=O)(=O)N(C)C)c3)nc(N3CC4C(N)C4C3)c2c1Cl (stereo not drawn) [701,181] | > 64 µg/mL | 8 | 2
CCc1[nH]c2nc(Sc3cncc(S(=O)(=O)N(C)C)c3)nc(N3CC[C@@H](N)C3)c2c1C [701,182] | > 64 µg/mL | >64 | >64
CCc1[nH]c2nc(Sc3cncc(S(=O)(=O)N(C)C)c3)nc(N3CC4C(N)C4C3)c2c1C (stereo not drawn) [701,183] | > 64 µg/mL | 64 | 16
CCc1[nH]c2nc(Sc3ccc4c(N5CC[C@@H](N)C5)cc(=O)oc4c3)nc(N3CC[C@@H](N)C3)c2c1Cl [701,184] | > 64 µg/mL | >64 | >64
CCc1[nH]c2nc(Oc3cncnc3)nc(N3CC4C(N)C4C3)c2c1C (stereo not drawn) [701,193] | 64 µg/mL (≈ 182 µM) | 32 | 8
N[C@@H]1CCN(c2nc(Sc3cnc4cccnc4c3)nc3[nH]c(CC(F)(F)F)c(Cl)c23)C1 [701,209] | > 64 µg/mL | 4 | 2
CCc1[nH]c2nc(Sc3ccc4cc5c([n+]([O-])c4c3)CCN(C(=O)CCCC[C@@H]3SC[C@@H]4NC(=O)N[C@@H]43)C5)nc(N3CC4C(C3)C4(N)C(N)=O)c2c1Cl (stereo partly drawn) [701,229] | > 64 µg/mL | 32 | 4

Structure (SMILES) | MIC EC8 [1] | MIC Spn52 [2] | MIC, SA [3]
CCc1[nH]c2nc(Oc3cncc(C(N)=O)c3)nc(C)c2c1Cl [701,231] | > 64 µg/mL | 4 | 2
CCc1[nH]c2nc(Oc3ccc4nccnc4c3)nc(C)c2c1Cl [701,232] | > 64 µg/mL | 4 | 1
CCc1[nH]c2nc(Oc3cncnc3)nc(Oc3ccc4nccnc4c3)c2c1C [701,233] | > 64 µg/mL | 8 | 1.
NC1C2CN(c3nc(Sc4cnc5ccc[n+]([O-])c5c4)nc4[nH]c(CC(F)(F)F)c(Cl)c34)CC12 (stereo not drawn) [701,236] | > 64 µg/mL | >64 | >64
CCc1[nH]c2nc(N3CCN(c4cc(C(=O)OC)nc5ccc(Cl)cc45)CC3)ncc2c1Cl [701,237] | > 64 µg/mL | >64 | >64
CCc1[nH]c2nc(Oc3ccc4nccnc4c3)ncc2c1Cl [701,238] | > 64 µg/mL | 32 | 4
CCc1[nH]c2nc(Sc3cnc4ncn(C)c(=O)c4c3)nc(N3CC4C(N)C4C3)c2c1C (stereo not drawn) [701,239] | 64 µg/mL (≈ 143 µM) | 16 | 2
Cc1nc(Sc2cncc(C(N)=O)c2)nc2[nH]c(C(C)O)c(Cl)c12 (stereo not drawn) [701,240] | > 64 µg/mL | >64 | >64
CCc1[nH]c2nc(Oc3cncnc3)nc(Oc3cnc(N)nc3)c2c1Cl [701,241] | > 64 µg/mL | 2 | 1
CCc1[nH]c2nc(Oc3cncnc3)nc(Oc3cc(O)cc(C#N)c3)c2c1Br [701,249] | 8 µg/mL (≈ 17.7 µM) | <=0.5 | <=0.5
CCc1[nH]c2nc(Oc3cncnc3)nc(Oc3cc(N)cc(C#N)c3)c2c1Br [701,250] | > 64 µg/mL | <=0.5 | <=0.5
CCc1[nH]c2nc(Oc3cncnc3)nc(Oc3cccc(CNC)c3)c2c1Cl [701,251] | > 64 µg/mL | 2 | 1
CCc1[nH]c2nc(Oc3cnc4cccnc4c3)nc(Oc3cccc(C#N)c3)c2c1Br [701,252] | > 64 µg/mL | <=0.5 | <=0.5
CCc1[nH]c2nc(Oc3cccc(C#N)c3)nc(Oc3cncnc3)c2c1Br [701,253] | > 64 µg/mL | 4 | 1
CCc1[nH]c2nc(Oc3cnc(C)nc3)nc(Oc3cnc(C)nc3)c2c1Br [701,254] | > 64 µg/mL | <=0.5 | <=0.5
CCc1[nH]c2nc(Oc3cncc(C#N)c3)nc(Oc3cnc(N)nc3)c2c1Br [701,255] | > 64 µg/mL | <=0.5 | <=0.5
CCc1[nH]c2nc(N3CCN(c4cc(C(=O)O)nc5ccc(Cl)cc45)CC3)ncc2c1Cl [701,260] | > 64 µg/mL | 64 | 8
CCc1[nH]c2nc(Oc3cncc(C#N)c3)ncc2c1Cl [701,261] | > 64 µg/mL | 16 | 4
CCc1[nH]c2nc(Sc3cnc4ccc[n+]([O-])c4c3)nc(N3CC(NS(C)(=O)=O)C3)c2c1Cl [701,263] | > 64 µg/mL | 1 | <=0.5
CCc1[nH]c2nc(Oc3cncnc3)nc(Oc3cc(O)cc(C#N)c3)c2c1Cl [701,264] | > 64 µg/mL | <=0.5 | <=0.5
CCc1[nH]c2nc(Oc3cncc(C(N)=O)c3)ncc2c1Cl [701,265] | > 64 µg/mL | 16 | 4
CCc1[nH]c2nc(Oc3ccc[n+]([O-])c3)nc(Oc3cccc(C#N)c3)c2c1Br [701,267] | 32 µg/mL (≈ 70.8 µM) | <=0.5 | <=0.5
CCc1[nH]c2nc(Oc3cncc(C#N)c3)nc(Oc3cc(O)cc(C#N)c3)c2c1Br [701,268] | 4 µg/mL (≈ 8.38 µM) | <=0.5 | <=0.5
CCc1[nH]c2nc(Sc3cnc4ccc[n+]([O-])c4c3)nc(N3C[C@@H]4[C@@H](CN)[C@@H]4C3)c2c1Cl [701,269] | 8 µg/mL (≈ 17.1 µM) | <=0.5 | <=0.5
CCc1[nH]c2nc(Sc3cnc4c(c3)c(=O)ncn4C)nc(N3CC4C(N)C4C3)c2c1Cl (stereo not drawn) [701,270] | 32 µg/mL (≈ 68.2 µM) | 4 | <=0.5
CCc1[nH]c2nc(Oc3cncnc3)nc(Oc3cc(Cl)cc(N4CC(N)C4)c3)c2c1Br [701,273] | 16 µg/mL (≈ 31 µM) | <=0.5 | <=0.5
CCc1[nH]c2nc(Oc3cncc(C(N)=O)c3)nc(N3CC4C(N)C4C3)c2c1Cl (stereo not drawn) [701,278] | > 64 µg/mL | >64 | >64
